Experiment: Human HepG2 cell viability assay in 384 well format
Assay type: toxicity, cell-based
Parameters: dose 125 nL, time 70.5 hour; concentration not given beside the values
Conditions: HepG2 cells, read-out: Inhibition
For `NC(=O)C1(c2cnccn2)CCCN1Cc1ccc(Cl)c(F)c1` (stereo not drawn), the cytotoxicity at 70.5 h was -5.01%. With `COCCC(=O)N1CCC(c2cncc(Oc3cccnc3)n2)CC1` the cytotoxicity at 70.5 h was -0.961%. `CC(C)(N)C(=O)N1CCCC1c1cncc(Oc2ccccc2)n1` (stereo not drawn) gave a cytotoxicity at 70.5 h of 2.03%. For `Cn1ccnc1CN1CCOC(C)(C(=O)N2CCOCC2)C1` (stereo not drawn), the cytotoxicity at 70.5 h was 1.29%. In the case of `Cc1cccc(CN2CCOC(C)(C(=O)N3CCOCC3)C2)n1` (stereo not drawn), the cytotoxicity at 70.5 h is reported as 11%. Work on `CC(=O)Nc1nc(C2CCN(C(=O)c3ccncc3)CC2)cs1` yielded a cytotoxicity at 70.5 h of 24.9%. Work on `CC1(C(=O)N2CCOCC2)CN(Cc2c[nH]cn2)CCO1` (stereo not drawn) yielded a cytotoxicity at 70.5 h of -0.532%. For `Cc1cc(CN2CCN(S(C)(=O)=O)CC(C(=O)N(C)C)C2)no1` (stereo not drawn), the cytotoxicity at 70.5 h was 0.351%. For `CC(=O)N1CCN(c2ccnc(C)n2)CC(COc2ccccc2)C1` (stereo not drawn), the cytotoxicity at 70.5 h was -3.78%. `NC(=O)C1CN(C(=O)Cc2cccnc2)CCN(C2CCOCC2)C1` (stereo not drawn) showed a cytotoxicity at 70.5 h of 0.12%. `Oc1nc(N2CCOCC2)nc2c1CCN(Cc1ccccc1)CC2` showed a cytotoxicity at 70.5 h of -1.05%. Work on `CC(=O)Nc1nc(C2CCN(C(C)C)CC2)cs1` yielded a cytotoxicity at 70.5 h of -1.18%. In the case of `CC(C)C(=O)N1CCCC(c2cncc(Oc3cccnc3)n2)C1` (stereo not drawn), the cytotoxicity at 70.5 h is reported as -2.17%. `O=C(Cc1ccsc1)N1CCOC(c2nc(-c3ncccn3)no2)C1` (stereo not drawn) gave a cytotoxicity at 70.5 h of -2.86%. In the case of `Cc1n[nH]c(C)c1-c1nccnc1CC1CCN(C(C)C)CC1`, the cytotoxicity at 70.5 h is reported as 13.4%. With `Cc1cc(CCC(=O)N2CCCC2)nc(C2CCCN2)n1` (stereo not drawn) the cytotoxicity at 70.5 h was -1.61%. In the case of `CNC(=O)C1(c2cnccn2)CCCN1C(=O)c1ccc(OC)cc1` (stereo not drawn), the cytotoxicity at 70.5 h is reported as 18.7%. In the case of `CNC(=O)C1(c2cnccn2)CCCN1C(=O)c1ccc(F)cc1` (stereo not drawn), the cytotoxicity at 70.5 h is reported as 22.8%. Work on `COc1ccc(Oc2nccnc2C2CCN(C(C)=O)CC2)cc1` yielded a cytotoxicity at 70.5 h of -4.84%. `CN1CCCCC[C@@H]2[C@@H]1[C@H](c1ccccc1)CN2C(=O)c1cccnc1` showed a cytotoxicity at 70.5 h of 3.63%. Compound `CN1CC(c2cc(O)nc(NCc3ccc(Cl)cc3)n2)CC1=O` (stereo not drawn) has a cytotoxicity at 70.5 h of -5.19%. Compound `CC(=O)N1CCC(c2nccnc2-c2ccc(F)cc2)CC1` has a cytotoxicity at 70.5 h of -0.029%. For `COCCC(=O)N1CCC(c2cc(O)n(C)n2)C1` (stereo not drawn), the cytotoxicity at 70.5 h was 1.63%. Compound `CC(=O)N1CCC(c2nccnc2-c2ccc(F)c(F)c2)CC1` has a cytotoxicity at 70.5 h of -0.906%. For `Nc1nc2nc(C3CCCN(C(=O)c4cnccn4)C3)ccc2s1` (stereo not drawn), the cytotoxicity at 70.5 h was -3.81%. In the case of `CNC(=O)c1ccc(C2CN(C(=O)c3scnc3C)CCO2)nc1` (stereo not drawn), the cytotoxicity at 70.5 h is reported as -3.13%. Compound `Cc1cccnc1C(=O)N1CCC(Cc2cnc3[nH]ccc3c2)CC1` has a cytotoxicity at 70.5 h of 21.2%. Work on `CNC(=O)C1(c2cnccn2)CCCN1C(=O)c1ncccc1C` (stereo not drawn) yielded a cytotoxicity at 70.5 h of -5.43%. Work on `O=S(=O)(N1CCCCC1)N1CCC(Oc2cnccn2)CC1` yielded a cytotoxicity at 70.5 h of -2.24%. With `O=C(N[C@@H]1CC[C@@H](n2ccnc2)[C@@H]1O)c1cc2c(s1)CCC2` the cytotoxicity at 70.5 h was 1.51%. Compound `COc1ccc(CN(C)[C@@H]2CN(C(=O)c3ccnn3C)C[C@H]2O)cc1` has a cytotoxicity at 70.5 h of -3.38%. Compound `CS(=O)(=O)N1CCN(Cc2cccs2)CC(C(N)=O)C1` (stereo not drawn) has a cytotoxicity at 70.5 h of -2.16%. With `COc1ccc(CN(C)[C@@H]2CN(C(=O)c3cncs3)C[C@H]2O)cc1` the cytotoxicity at 70.5 h was 0.0164%. `COCCN(C(=O)c1ccccn1)c1nc2c(s1)CCc1c-2cnn1C` showed a cytotoxicity at 70.5 h of 14.7%. `CN(C)S(=O)(=O)N1CCN(Cc2ccnc(N3CCCC3)n2)CC1` showed a cytotoxicity at 70.5 h of -1.31%. Work on `Cn1nc(C2CN(C(=O)c3cccnc3)C2)c2nccnc21` yielded a cytotoxicity at 70.5 h of -3.75%. Work on `Cn1ccc(C(=O)N2CCCC(c3cc(O)n(C)n3)C2)n1` (stereo not drawn) yielded a cytotoxicity at 70.5 h of 28%. In the case of `COCCN1CCC(c2cncc(-c3ccccc3C)n2)CC1`, the cytotoxicity at 70.5 h is reported as -4.28%. Compound `Cc1ccccc1-c1cncc(C2CCN(Cc3cnn(C)c3)CC2)n1` has a cytotoxicity at 70.5 h of -9.46%. `Cc1cc(C2CCCN(C(=O)c3cccnc3)C2)ccn1` (stereo not drawn) gave a cytotoxicity at 70.5 h of -11.1%. Compound `CN1CCCC[C@@H]2[C@H]1[C@@H](c1ccccc1)CCN2C(=O)c1cccnc1` has a cytotoxicity at 70.5 h of -7.01%. With `CN(C)CC(=O)N1CC(c2nn(C)c3nccnc23)C1` the cytotoxicity at 70.5 h was -6.77%. `Cc1cc(C)nc(Nc2cccc(C3CCCN(CC4CC4)C3)n2)n1` (stereo not drawn) gave a cytotoxicity at 70.5 h of -5.69%. `CCc1c(C)nc(C2CCCN2C(=O)c2cc(C)no2)nc1O` (stereo not drawn) showed a cytotoxicity at 70.5 h of 10.5%. `CCc1c(C)nc2cc(C3CCN(CCc4ccccc4)C3)nn2c1O` (stereo not drawn) gave a cytotoxicity at 70.5 h of -0.223%. In the case of `NC(=O)C1CCCN(S(=O)(=O)c2cnn(-c3ccccc3)c2)C1` (stereo not drawn), the cytotoxicity at 70.5 h is reported as -1.76%. In the case of `CC(C)CCN(C)Cn1ncc2cn(-c3ccccc3)nc2c1=O`, the cytotoxicity at 70.5 h is reported as 14.5%. Compound `CCCn1cc(C(=O)NCCS(N)(=O)=O)c2ccccc21` has a cytotoxicity at 70.5 h of 15.9%. `COc1ccc(Cl)cc1NCC(=O)N(Cc1cccnc1)C1CC1` gave a cytotoxicity at 70.5 h of -7.28%. Compound `CC(c1nc(C2CC2)no1)N1CCN(CCn2ccccc2=O)CC1` (stereo not drawn) has a cytotoxicity at 70.5 h of -4.93%. For `CCS(=O)(=O)NCCN1CCc2ccc(F)cc2C1C` (stereo not drawn), the cytotoxicity at 70.5 h was -4.91%. In the case of `Cc1nn(C)c(C)c1C1CCCN1c1ncnc2c1CCC2` (stereo not drawn), the cytotoxicity at 70.5 h is reported as 1.18%. `CN(CC(=O)NCCc1cc2ccccc2o1)S(C)(=O)=O` showed a cytotoxicity at 70.5 h of 13.9%. In the case of `COCCn1c(C(=O)NCc2n[nH]c(C)n2)cc2ccccc21`, the cytotoxicity at 70.5 h is reported as -0.294%. `OC1(CNc2ccc(Br)cn2)CCC1` gave a cytotoxicity at 70.5 h of 16.3%. In the case of `CS(=O)(=O)CCn1ccc(NCc2ccc(C#N)cc2)n1`, the cytotoxicity at 70.5 h is reported as -0.713%. Work on `CN(C)c1ccc(C(=O)N2CCCCC2CC(N)=O)c(F)c1` (stereo not drawn) yielded a cytotoxicity at 70.5 h of -1.41%. `OC1(CNc2ccc(Br)cn2)CCSCC1` gave a cytotoxicity at 70.5 h of 15.9%. Work on `Cc1nc(CN(C)C(=O)Nc2cccc(COC(C)C)c2C)no1` yielded a cytotoxicity at 70.5 h of -4.14%. Work on `Cc1csc(C(C)(C)NCCNS(C)(=O)=O)n1` yielded a cytotoxicity at 70.5 h of 18.5%. Compound `Cc1csc(C(C)(C)NCCCS(C)(=O)=O)n1` has a cytotoxicity at 70.5 h of -2%. Work on `CC1c2cc(F)ccc2CCN1CCS(=O)(=O)C(C)C` (stereo not drawn) yielded a cytotoxicity at 70.5 h of -3.51%. `CNS(=O)(=O)CC1CCCN1c1ccccn1` (stereo not drawn) gave a cytotoxicity at 70.5 h of -4.24%. Work on `CC(Nc1ccn(CCS(C)(=O)=O)n1)c1ccc(C#N)cc1` (stereo not drawn) yielded a cytotoxicity at 70.5 h of -1.96%. Compound `CN(C)C(=O)CCCn1ccc(NCc2ccc(C#N)cc2)n1` has a cytotoxicity at 70.5 h of -2.31%. `CC1c2cc(F)ccc2CCN1CCCS(=O)(=O)C(C)C` (stereo not drawn) gave a cytotoxicity at 70.5 h of -2.78%. Work on `CNC(=O)NCC(=O)N(C)C(c1ccc(Cl)cc1)c1cccnc1` (stereo not drawn) yielded a cytotoxicity at 70.5 h of 21.3%. `O=C1NCCCCC1Sc1ccccc1F` (stereo not drawn) showed a cytotoxicity at 70.5 h of -11.2%. Work on `CN(C)c1ncccc1CNCc1cccc(O)c1` yielded a cytotoxicity at 70.5 h of -12.2%. `Cc1ccc(CNC(=O)CN(CCC(N)=O)c2ccc(F)cc2)cc1` gave a cytotoxicity at 70.5 h of -3.51%. Work on `COc1ccc(CCC2CCCCN2)cc1OC` (stereo not drawn) yielded a cytotoxicity at 70.5 h of 19.8%. Compound `N#CCCCS(=O)(=O)NC1(c2cccc(Br)c2)CC1` has a cytotoxicity at 70.5 h of -8.99%. With `CCN(CC)C(=O)NC(C)c1ccc(Oc2cccnc2)c(F)c1` (stereo not drawn) the cytotoxicity at 70.5 h was 16%. Work on `Cc1ccc(C(F)(F)F)cc1NC(=O)C1CCCN1` (stereo not drawn) yielded a cytotoxicity at 70.5 h of -8.7%. For `O=C(NCC1(O)CCC1)c1c(O)cc(Cl)cc1Cl`, the cytotoxicity at 70.5 h was -1.39%. Work on `O=C(NCC1(O)CCC1)c1c(O)cc(F)cc1F` yielded a cytotoxicity at 70.5 h of 13.9%. For `CSCC(=O)N1CCOC(c2nc(C(C)C)n[nH]2)C1` (stereo not drawn), the cytotoxicity at 70.5 h was -7.67%. Compound `CC1(C)CN(C(=O)c2cc(F)cc3[nH]cnc23)CCS1` has a cytotoxicity at 70.5 h of -11%. `Cn1nc(C2CCN(C(=O)CN3CCCCC3)CC2)c2cccnc21` gave a cytotoxicity at 70.5 h of -4.57%. `Cc1n[nH]cc1CNCC1(c2ccc3c(c2)OCO3)CCOCC1` showed a cytotoxicity at 70.5 h of -5.66%. `Cc1n[nH]cc1CNCC1(c2cccc(F)c2)CCOCC1` gave a cytotoxicity at 70.5 h of -5.63%. Compound `O[C@@]1(c2ccccn2)CC[C@H]2CN(Cc3ccccn3)C[C@H]21` has a cytotoxicity at 70.5 h of -0.173%. `c1cc2nccc(CC3CCCN(C4CCOCC4)CC3)c2cn1` (stereo not drawn) gave a cytotoxicity at 70.5 h of -1.46%.

Reference: ChEMBL document CHEMBL3507680, “University of Dundee, Gates Library screen for HepG2 cell viability”
